From patent publication EP2359864B1, “Targeting Vector-Phospholipid Conjugates” (Bracco Suisse SA, priority 2005, dated 2019)
Like-named read-outs stand apart in the source and are kept apart here. Numbered stars: 1 amine (or outer) side, 2 acyl side, 3 side chain; on linkers, the order of the positions; unused ones are H or OH. Side chains are listed from the residue outwards. * marks the point of attachment. DSPE = CCCCCCCCCCCCCCCCCC(=O)OC[C@H](COP(=O)(O)OCCN*)OC(=O)CCCCCCCCCCCCCCCCC; Glutaryl = O=C(CCCC(=O)[*:2])[*:1]

Key:
KDR [1] = assay: Binding affinity of peptide monomers to KDR (statement only); details: statement in the description, no data shown
[2] = system: KDR receptor expressed on the endothelium of neovessels; assay: In vivo ultrasound imaging of KDR-targeted contrast agents, rabbit VX2 tumor model; parameters: species or system New Zealand rabbits; details: confirmed using echographic examination of VX2 tumors in rabbits
Procedure: The ability of ultrasound contrast agents containing KDR binding lipopeptides of the invention to bind to KDR-expressing tissue in vivo was assessed using a known model of angiogenesis: the rabbit VX2 tumor model.
A known model of angiogenic tissue was used to examine the ability of the KDR-targeted ultrasound microbubbles to localize to and provide an image of angiogenic tissue. The VX2 rabbit carcinoma was serially implanted in the dorsal muscle of New Zealand rabbits (Charles River Laboratories, France) weighting 2.5/3kg.
Tumor was surgically removed, placed into McCoy's culture medium containing 10% fetal calf serum, antibiotics, 1.5 mM Glutamax I and cut into small pieces that were rinsed to remove blood and debris. Then tumor pieces (3 to 5 cm^3) were placed in a 50 ml Falcon tube containing 5 mL of complete medium. The tumor tissue was ground (Polytron) until no more solid pieces were visible. The murky fluid was centrifuged for 5 minutes at 300g and the supernatant discarded. Seven mL of fresh medium was added per 5 mL of pellet.
Rabbits received first 0.3 mL of Vetranquil (Acepromazine, Sanofi, injected intramuscularly) and were then anesthetized with an intramuscular injection of Ketaminol®5/Xylazine (Veterinaria AG/Sigma) mixture (50/10 mg/mL, 0.7 mL/kg). One hundred microliters of VX2 tumor homogenate was injected intramuscularly. Fifteen days after implantation of VX2 tumors, animals were anesthetized again with the same mixture, plus subcutaneous injection of 50% Urethane (2mL/kg, s.c.) (Sigma) for imaging experiments. […]
After bubble injection (0.1 µL/kg of gas) using the preparations of either Example 16 or Example 17, insonation was stopped allowing bubbles to accumulate for 25 minutes. […] The amount of free circulating bubbles was then assessed by recording the signal obtained after 20 sec accumulation without insonation. Video frames from VX2 tumor imaging experiments were captured with video-capture and analysed with Image-Pro Plus 2.0 software. […]

[3] = Storage stability: formation of lyso- compound (analytical HPLC); assay type: physicochemical; details: after 5 days at room temperature; material after Zorbax C-3 preparative HPLC
Procedure: The present invention provides methods for producing dimeric peptide-phospholipid conjugates having very low levels of TFA. While certain methods provide for the synthesis and purification of such conjugates on a gram scale, formation of a lyso- version of the conjugates has been observed upon storage of lyophilized material at 5°C or upon storage of aqueous solutions of the conjugates. It is believed that the lyso- compound is formed by TFA-promoted acid hydrolysis of one of the phospholipid fatty acid esters in dimer peptide-phospholipid conjugates.
Materials used and conditions for the analytical HPLC system include the following: Column: Zorbax 300SB C-3; 3 mm i.d. x 150 mm; 3.5 µm particle; Eluent A : H2O (HPLC Grade with 0.1% TFA by volume); Eluent B: CH3CN (0.1% TFA by volume). Elution: Initial condition: 50% B then a linear gradient of 50-90% B over 3 min, hold at 90% B for 11 min; Flow rate: 0.5 mL/min; Detection: UV at 220 nm. Ret. time: (Compound (21)): 6.77 min, Rt (lyso): 4.06 min.
The fractions that contained (21) were combined and lyophilized to give a white fluffy solid. This was dissolved in water-acetonitrile, then lyophilized again. This provided 70 mg product devoid of the lyso- compound. The recovery was about 70%. After chromatography was completed, the system was washed with 95% B for 15 min at a flow rate of 30 mL/min. […]

KDR [4] = details: as shown in co-pending U.S. Application No. 10/661,156; cited from earlier work
[5] = target: Full-length KDR on transfected 293H cells (UniProt P35968); assay: static binding of targeted microbubbles (DSPC/DPPG envelope) on KDR-transfected 293H cells minus mock-transfected cells
[6] = target: Full-length KDR on transfected 293H cells (UniProt P35968); assay: static binding of targeted microbubbles (DSPC/DPPG envelope) on KDR-transfected 293H cells, 50% human plasma, microscopy
[7] = target: Full-length KDR on transfected 293H cells (UniProt P35968); assay: static binding of targeted microbubbles (DPPE/DPPG envelope) on KDR-transfected 293H cells minus mock-transfected cells
[8] = target: Full-length KDR on transfected 293H cells (UniProt P35968); assay: static binding of targeted microbubbles (DPPE/DPPG envelope) on KDR-transfected 293H cells, 50% human plasma, microscopy

Sequence of UniProt P35968 (P35968 20-1356 limits assumed): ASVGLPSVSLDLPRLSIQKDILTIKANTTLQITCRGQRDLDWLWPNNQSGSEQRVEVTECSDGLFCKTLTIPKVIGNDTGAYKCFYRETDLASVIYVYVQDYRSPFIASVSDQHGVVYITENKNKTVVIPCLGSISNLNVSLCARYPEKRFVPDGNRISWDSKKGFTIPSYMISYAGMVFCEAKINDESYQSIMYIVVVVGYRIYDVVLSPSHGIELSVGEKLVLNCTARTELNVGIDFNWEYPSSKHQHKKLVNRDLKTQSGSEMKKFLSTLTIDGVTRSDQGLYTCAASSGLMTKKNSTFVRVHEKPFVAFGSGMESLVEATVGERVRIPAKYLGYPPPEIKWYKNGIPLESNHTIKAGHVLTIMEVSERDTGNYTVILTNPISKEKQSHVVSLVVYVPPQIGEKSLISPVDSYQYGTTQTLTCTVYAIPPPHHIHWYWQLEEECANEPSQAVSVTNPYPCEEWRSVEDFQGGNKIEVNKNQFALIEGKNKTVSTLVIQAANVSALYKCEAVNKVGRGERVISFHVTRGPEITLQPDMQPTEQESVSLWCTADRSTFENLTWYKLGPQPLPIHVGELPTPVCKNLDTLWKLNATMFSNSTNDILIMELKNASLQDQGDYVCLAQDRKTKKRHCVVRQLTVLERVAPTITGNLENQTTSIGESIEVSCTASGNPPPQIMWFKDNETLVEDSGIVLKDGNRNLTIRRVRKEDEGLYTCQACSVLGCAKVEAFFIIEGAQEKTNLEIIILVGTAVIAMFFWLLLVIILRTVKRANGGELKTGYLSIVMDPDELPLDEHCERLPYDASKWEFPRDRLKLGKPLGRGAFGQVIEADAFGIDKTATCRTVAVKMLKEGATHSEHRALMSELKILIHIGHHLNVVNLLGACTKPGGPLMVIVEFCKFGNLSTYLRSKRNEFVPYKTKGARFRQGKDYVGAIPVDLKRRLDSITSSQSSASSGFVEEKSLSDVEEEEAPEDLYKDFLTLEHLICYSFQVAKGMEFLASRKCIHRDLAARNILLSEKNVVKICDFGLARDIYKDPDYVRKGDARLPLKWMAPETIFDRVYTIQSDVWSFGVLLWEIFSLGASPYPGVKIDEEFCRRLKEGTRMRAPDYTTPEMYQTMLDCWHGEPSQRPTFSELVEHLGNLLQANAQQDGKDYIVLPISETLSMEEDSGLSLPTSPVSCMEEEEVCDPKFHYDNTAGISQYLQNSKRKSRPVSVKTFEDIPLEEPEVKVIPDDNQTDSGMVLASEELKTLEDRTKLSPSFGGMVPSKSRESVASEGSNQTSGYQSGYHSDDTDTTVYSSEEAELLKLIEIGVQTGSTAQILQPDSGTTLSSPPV

Molecule: CC[C@H](C)[C@H](NC(=O)[C@H](CCC(=O)O)NC(=O)[C@H](CC(=O)O)NC(=O)[C@H](Cc1ccc(O)cc1)NC(=O)[C@H](Cc1ccc(O)cc1)NC(=O)[C@H](Cc1c[nH]c2ccccc12)NC(=O)[C@H](CC(=O)O)NC(=O)[C@H](CCC(N)=O)NC(=O)[C@H](C)NC(=O)[C@H](CCCNC(=N)N)NC(C)=O)C(=O)N[C@@H](CC(C)C)C(=O)N[C@@H](CO)C(=O)N[C@@H](CCSC)C(=O)N[C@@H](C)C(=O)N[C@@H](CC(=O)O)C(=O)N[C@@H](CCC(N)=O)C(=O)N[C@@H](CC(C)C)C(=O)N[C@@H](CCCNC(=N)N)C(=O)N[C@@H](Cc1c[nH]cn1)C(=O)N[C@@H](C)C(=O)N[C@@H](Cc1ccccc1)C(=O)N[C@@H](CC(C)C)C(=O)N[C@@H](CO)C(=O)NCC(=O)NCC(=O)NCC(=O)NCC(=O)NCC(=O)N[C@@H](CCCCN)C(N)=O [(2)]
- binding affinity to KDR (KDR [1]): high affinity

Molecule: Ac-AGPTWCEDDWYYCWLFGTGGGK{Ac-VCWEDSWGGEVCFRYDP-GGGK[-Adoa-Adoa-Glut-K(DSPE-PEG2000-NH-Glut)]-NH2 cyclic (2-12) disulfide}-NH2 cyclic (6-13) disulfide [(11)]
- KDR binding of gas filled microbubbles formulated with the conjugate [2]: high KDR binding

Molecule: Ac-AGPTWCEDDWYYCWLFGTGGGK{Ac-VCWEDSWGGEVCFRYDPGGGK[-Adoa-Adoa-Glut-K(DSPE-PEG2000-NH-Glut)]-NH2 cyclic (2-12) disulfide}-NH2 cyclic (6-13) disulfide [(21)]
- formation of lyso- compound [3]: no lyso- compound formed

Molecule: Ac-AQDWYYDEILSMADQLRHAFLSGGGGGK(DSPE-PEG2000-NH-Glut)-NH2 [(31)]
- KDR binding of gas filled microbubbles formulated with the conjugate [2]: high KDR binding

Molecule: Ac-AQDWYYDEILSMADQLRHAFLSGGGGGK-NH2 [(32)]
- binding affinity to KDR (KDR [4]): high affinity

Molecule: Ac-RAQDWYYDEILSMADQLRHAFLSGGGGGK(DSPE-PEG2000-NH-Glut)-NH2 (not fully specified; N-acetyl, C-amide, DSPE-PEG2000-NH-Glut lipid conjugate) [(1)]
- KDR binding of gas filled microbubbles formulated with the conjugate [2]: high KDR binding

B1: monomeric peptide phospholipid conjugate (31) (peptide)
peptide: Ac-AQDWYYDEILSMADQLRHAFLSGGGGGK([Glutaryl-PEG2000-DSPE])-NH2
- % of surface covered by bound microbubbles (KDR-Mock) [5]: 27.7%
- % of surface covered by bound microbubbles (KDR) [6]: 28%
- % of surface covered by bound microbubbles (KDR-Mock) [7]: 23.5%
- % of surface covered by bound microbubbles (KDR) [8]: 23.6%
